According to patent US11446402B2, “Composition for material delivery, including exosome mimetics derived from red blood cells, and use thereof” (Kyungpook National University Industry—Academic Cooperation …, priority 2018, dated 2022):

Legend:
[1] = In vivo gamma camera imaging after tail vein infusion; parameters: species or system C57BL/6 mice
Procedure: In vivo gamma camera imaging was performed on 5-week-old male C57BL/6 mice (Hamamatsu, Shizuoka). The gamma camera images were captured and taken for 10 min using a 2 mm pinhole collimator (Infinia II, GE Healthcare, Milwaukee, Wis., USA). A 200 μl volume of 37 MBq ^99mTC-RBC-EM was infused into the tail vein of mice. As a control, the same amount of free ^99mTc was infused. During the imaging, mice were continuously anesthetized using 2.5% isoflurane (Merial, Lyon, France). The gamma camera images were obtained by capturing the gamma camera images 1 hour and 3 hours after infusing ^99mTc-RBC-EM and free ^99mTc.
The region of interests (ROIs) in mice into which free ^99mTc was infused were the thyroid gland and the stomach, and the region of interests (ROIs) in mice into which ^99mTc-RBC-EM was infused were the thyroid gland and the liver/spleen. The right thigh part was used as a control of ROI. The average ROI count per pixel was calculated by dividing the same mice by the control ROI.

8505C cells = test: Labeling of tumor cells with ^99mTc, uptake by gamma-counter; type: cell-based, human; conditions: 4 μCi
Procedure: A human atypical thyroid carcinoma 8505C cell line (Deutsche Sammlung von Mikroorganismen and Zellkulturen (DSMZ)) was cultured under a humidified atmosphere of 5% CO2 at 37° C. in Dulbecco's Modified Eagle Medium (DMEM, Invitrogen, Grand Island, N.Y., USA) supplemented with 10% fetal bovine serum (FBS), 10 U/ml penicillin, and 10 μg/ml streptomycin (Invitrogen). The 8505C cells were cultured together with ^99mTc-RBC-EM with various doses (0, 1, 2, and 4 μCi). 24 hours later, free ^99mTc-RBC-EM, which had not been absorbed in cells, were washed using PBS. Thereafter, the 8505C cells were cultured in a 20% FBS solution in a 37° C. CO2 incubator for 1, 6, 12, and 18 hours. The uptake values were measured by a gamma-counter (Cobra II, 1 Hewlett Packard, USA) at all the time points, and the amount of radiation measured was shown as a count per minute (cpm) unit. In order to compare the aforementioned results with the results of ^99mTc-RBC-EM (4 μCi), it was measured whether tumor cells were labeled with ^99mTc-RBC-EM using free ^99mTc (4 μCi).

uptake in regions of interest 3 hours after the infusion compared to 1 hour ([1]; free ^99mTc: thyroid gland and stomach, ^99mTc-RBC-EM: thyroid gland, liver, spleen): significantly (P<0.001) increased
Structure (SMILES): [99Tc] [free ^99mTc, technetium-99m]
organs of uptake in gamma camera image ([1]; 1 hour after injection, intravenous): strong uptake of free ^99mTc in the thyroid gland, the stomach, and the bladder
absorption in 8505C cells (8505C cells): rarely absorbed
absorption in 8505C cells as the time is increased (8505C cells): not increased
